Experimental data as given in US9765115B2, “Inhibitors of metastasis, methods of generating such inhibitors and their therapeutic applications” (Board of Supervisors of Louisiana State University acting …, priority 2011, dated 2017).

Assays:
[1] = molecular target: T1, CTR-ZO-1 interaction (Homo sapiens, UniProt P30988, E471A/S472A/S473A); experiment: In situ proximity ligation assay (PLA); type: cell-based; settings: PC-3CTRΔESS cells, with or without CT
T1 construct: PCR generated full length CTRwt and CTRΔESS cDNAs were cloned directionally into pcDNA3.1 mammalian expression vector; FLAG (N); expressed in transfected cells; host or cells: PC-31 / PC-3 cells stably expressing FLAG-CTRwt; ZO-1 is the cells' own
T1 sequence (P30988 with tags, fused parts or gaps): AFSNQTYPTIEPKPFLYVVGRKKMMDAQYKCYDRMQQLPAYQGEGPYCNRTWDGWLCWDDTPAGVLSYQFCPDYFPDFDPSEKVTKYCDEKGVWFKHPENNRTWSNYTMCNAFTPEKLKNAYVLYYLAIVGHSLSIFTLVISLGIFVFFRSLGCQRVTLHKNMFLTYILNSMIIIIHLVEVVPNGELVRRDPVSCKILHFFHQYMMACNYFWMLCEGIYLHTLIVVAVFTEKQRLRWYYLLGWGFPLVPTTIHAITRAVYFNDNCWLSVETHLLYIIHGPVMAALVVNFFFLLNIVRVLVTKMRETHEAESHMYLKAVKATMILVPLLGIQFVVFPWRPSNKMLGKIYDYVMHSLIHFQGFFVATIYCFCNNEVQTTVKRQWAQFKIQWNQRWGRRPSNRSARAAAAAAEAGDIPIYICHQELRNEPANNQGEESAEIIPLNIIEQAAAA
Protocol: Fixed PC cells or tissues were immunolabeled with primary antibodies (anti-rabbit ZO-1 serum and anti-goat CTR serum) for overnight at 4° C. The secondary antibodies with attached PLA probes were supplied in the Duolink™ kit (Olink Bioscience, Uppsala, Sweden). CTR-ZO-1 interaction was observed by confocal microscopy at 400×. A red fluorescent dot indicated the two proteins are within 35 nm distance. The number of dots per cell was determined by Blobfinder™ image analysis software (Allalou et al., 2009).
Next, CTR-ZO-1 interaction was examined in PC-3CTRwt cells. […] Each dot represents an interaction between activated CTR and ZO-1, detected by in situ PLA™ using the Duolink® kit. Nuclei were stained with DAPI. The graph presents quantitative data of CTR-ZO-1 interactions in three separate but identical experiments (mean±SEM; n=6, p<0.001, paired t-test). […] Next, this phenomenon was examined in LNCaP cells, which are androgen-responsive and endogenously express CTR but not CT (Karpova et al., 2006). […] Finally, non-metastatic and metastatic PC specimens were examined in a similar experiment.
Since CTR directly interacts with ZO-1 through PDZ domain, whether CT-induced endocytosis of ZO-1 is caused by CTR-mediated events prior to or subsequent to CTR-ZO-1 interaction was tested. To determine the time course of CTR-ZO-1 interaction, in situ PLA assay was used (FIG. 15D). […] Representative micrographs are shown of CTR-ZO-1 interactions in PC-3CTRwt cells at various time periods (0-300 seconds) after CT stimulus. Each highlighted dot represents an interaction between activated CTR and ZO-1, detected by in situ PLA™ using the Duolink® kit. Nuclei were stained with DAPI. The line graph presents the mean±SEM of dots at each time point (n=6). […] Considering that ZO-1 endocytosis was observed after 1 minute of CT stimulus, it is conceivable that CTR-mediated events subsequent to CTR-ZO-1 interaction may be associated with TJ protein endocytosis.

[2] = test system: UMUC3, RT4, A2780, OVCAR8 and A549 cancer cell lines; experiment: Transepithelial electric resistance (TER) in other cancer cell lines; type: cell-based, human
Protocol: (§1) Cells were plated on Transwell filters (0.4 μm pore size) and grown to confluency in complete medium (RPMI1640 containing 10% fetal bovine serum, 20 mM HEPES and antibiotics). TER of the cultures (in duplicate wells) was measured at several time intervals with EVOM volt-ohm meter as previously described (Shah et al, 2009). The readings were corrected for blank (TER values from the filter in bathing medium). The integrity and cell density of monolayers were carefully monitored.
Next, whether CTR destabilizes tight junctions and increases invasion in these cancers was tested by examining the effect of CT on transepithelial electric resistance (TER), paracellular permeability (PCP) and invasion in cancer cell lines derived from bladder cancer (UMUC3 and RT4), ovarian cancer (A2780 and OVCAR8), and lung cancer (A549). Prostate cancer cell line PC-3CTR was used a reference line. […] This was further confirmed by the actions of CT on PCP (FIG. 26A) and cell invasion (FIG. 26B). […] The role of CT-CTR axis is to destabilize junction complexes and increase invasion in cancers as diverse as prostate, bladder, lung and ovarian cancers.

[3] = test system: LNCaP, PC-3M and DU-145 cell lines; experiment: Transepithelial electric resistance (TER); type: cell-based; settings: 50 nM CT
Protocol: as §1
Whether CT produces similar effects in LNCaP, PC-3M and DU-145 cell lines, which endogenously express CTR, was examined as shown in FIG. 1A. FIGS. 9A-9B depict the effect of CT on tight junction (TJ) disruption as measured using TER and PCP in the three prostate cancer cell lines—LNCaP, PC-3M, and DU-145. […] In FIG. 9B, cells were treated with and without 50 nM CT, and PCP determined by diffusion of ˜4 kDa TRITC-conjugated dextran from the upper to the lower chamber in one hour. The results are expressed as μg/ml/hour of TRITC-Dextran diffused ±SEM (n=6; *p<0.05 (−CT v +CT, One way ANOVA and Newman-Keul's test)). […] Cells were added to upper insert of invasion chambers with or without 50 nM CT, and cells that passed through the Matrigel™ barrier were counted after 48 h. The results are expressed as mean number of invaded cells per 400× field ±SEM (n=6; *p<0.05).

Substance: calcitonin [CT]
- CTR-ZO-1 interactions (PLA dots) [1]: no CTR-ZO-1 interactions were observed
- response to CT ([2]; aggressive cell lines): responded extremely well
- response to CT ([2]; well-differentiated lines RT4 and OVCAR8): responded poorly
- TER ([2]; with CT, all these cell lines): decreased TER
- TER [3]: reduced TER
